One assay addresses Galectin-1 (Homo sapiens, UniProt P09382). Briefly: Fluorescence anisotropy assay, inhibition of galectin / fluorescein tagged saccharide probe interaction. Conditions: compound as inhibitor of probe binding. As for the experimental part:
(§1) The affinity of Example 1-45 for galectins were determined by a fluorescence anisotropy assay where the compound was used as an inhibitor of the interaction between galectin and a fluorescein tagged saccharide probe as described Sörme, P., Kahl-Knutsson, B., Huflejt, M., Nilsson, U. J., and Leffler H. (2004) Fluorescence polarization as an analytical tool to evaluate galectin-ligand interactions. Anal. Biochem. 334: 36-47, (Sorme et al., 2004) and Monovalent interactions of Galectin-1 By Salomonsson, Emma; Larumbe, Amaia; Tejler, Johan; Tullberg, Erik; Rydberg, Hanna; Sundin, Anders; Khabut, Areej; Frejd, Torbjorn; Lobsanov, Yuri D.; Rini, James M.; et al, From Biochemistry (2010), 49(44), 9518-9532, (Salomonsson et al., 2010).
A general note: Polarisation of emitted light reports the rotation of a fluorescent probe.

The target in another assay is Galectin-3 (Homo sapiens, UniProt P17931). The assay is described as above. Conditions: compound as inhibitor of probe binding. As for the experimental part: as §1
Sequence of Galectin-3 (P17931 whole entry, species assumed): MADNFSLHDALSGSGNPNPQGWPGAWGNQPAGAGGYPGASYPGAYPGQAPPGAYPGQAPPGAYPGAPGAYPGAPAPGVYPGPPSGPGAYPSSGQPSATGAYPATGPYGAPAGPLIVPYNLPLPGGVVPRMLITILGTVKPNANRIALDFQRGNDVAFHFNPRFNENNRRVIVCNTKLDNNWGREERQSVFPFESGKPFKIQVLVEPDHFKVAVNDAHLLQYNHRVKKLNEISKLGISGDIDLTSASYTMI

SMILES strings stand for the structures. Bounds are passed on as bounds.

Sequence of Galectin-1 (P09382 whole entry, species assumed): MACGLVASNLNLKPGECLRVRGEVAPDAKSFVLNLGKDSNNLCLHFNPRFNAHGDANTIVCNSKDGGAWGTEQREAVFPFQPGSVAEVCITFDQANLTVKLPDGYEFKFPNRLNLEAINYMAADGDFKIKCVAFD

On to `N#Cc1ncc(Cl)cc1S[C@H]1OC(CO)[C@H](O)C(n2cc(-c3nc(Cl)cs3)cn2)C1O` (stereo partly drawn) [Example 30, 5-Chloro-2-cyanopyridin-3-yl 3-[4-(4-chlorothiazol-2-yl)-1H-1,2-pyrazol-1-yl]-3-deoxy-1-thio-α-D-galactopyranoside], for which the Kd at Galectin-1 was found to be 510 nM; on Galectin-3 it was 1100 nM.
As to `OCC1O[C@H](Sc2cncc(Cl)c2)C(O)C(n2cc(-c3csc(O)n3)cn2)[C@H]1O` (stereo partly drawn) [Example 31, 5-Chloropyridin-3-yl 3-deoxy-3-[4-(2-hydroxythiazol-4-yl)-1H-1,2-pyrazol-1-yl]-1-thio-α-D-galactopyranoside], the Kd on Galectin-1 amounted to 140 nM; on Galectin-3, 3400 nM.
For `OCC1O[C@H](Sc2cncc(Cl)c2)C(O)C(n2cnc(-c3cc(F)c(F)c(F)c3)c2)[C@H]1O` (stereo partly drawn) [Example 36, 5-Chloropyridin-3-yl 3-deoxy-3-[4-(3,4,5-trifluorophenyl)-1H-1,3-imidazol-1-yl]-1-thio-α-D-galactopyranoside], in that order: 12700 nM and 67 nM.
For `OCC1O[C@H](Sc2cc(Cl)cnc2N2CC(CO)(CO)C2)C(O)C(n2cc(-c3cc(F)c(F)c(F)c3)cn2)[C@H]1O` (stereo partly drawn) [Example 37, 5-Chloro-[3,3-bis(hydroxymethyl)azetidin-1-yl]pyridin-3-yl 3-deoxy-3-[4-(3,4,5-trifluorophenyl)-1H-1,2-pyrazol-1-yl]-1-thio-α-D-galactopyranoside], in that order: 5100 nM and 13 nM.
Consider `COC1C(n2ccc(-c3cc(F)c(F)c(F)c3)n2)[C@@H](O)C(CO)O[C@@H]1Sc1cncc(Cl)c1` (stereo partly drawn) [Example 38, 5-Chloropyridin-3-yl 3-deoxy-3-[3-(3,4,5-trifluorophenyl)-1H-1,2-pyrazol-1-yl]-2-O-methyl-1-thio-α-D-galactopyranoside], for which the Kd at Galectin-1 is 51000 nM; at Galectin-3, 450 nM.
For `OC[C@H]1O[C@H](Sc2ccc(Cl)c(Cl)c2)[C@H](O)[C@@H](c2nc(-c3cc(F)c(F)c(F)c3)co2)[C@H]1O` [Example 39, 3,4-Dichlorophenyl 3-deoxy-3-[4-(3,4,5-trifluorophenyl)-oxazol-2-yl]-1-thio-α-D-galactopyranoside], in that order: above 100000 nM and 300 nM.
For `OC[C@H]1O[C@H](Sc2ccc(Cl)c(Cl)c2)[C@H](O)[C@@H](c2nc(-c3cc(F)c(F)c(F)c3)cs2)[C@H]1O` [Example 40, 3,4-Dichlorophenyl 3-deoxy-3-[4-(3,4,5-trifluorophenyl)-thiazol-2-yl]-1-thio-α-D-galactopyranoside], in that order: above 100000 nM and 2000 nM.
Consider `OC[C@H]1O[C@H](Sc2ccc(Cl)c(Cl)c2)[C@H](O)[C@@H](c2nnc(-c3cc(F)c(F)c(F)c3)o2)[C@H]1O` [Example 41, 3,4-Dichlorophenyl 3-deoxy-3-[5-(3,4,5-trifluorophenyl)-1,3,4-oxadiazol-2-yl]-1-thio-α-D-galactopyranoside], for which the Kd on Galectin-1 was above 100000 nM; on Galectin-3, 1200 nM.
With `COC1C(n2cc(-c3csc(O)n3)cn2)[C@@H](O)C(CO)O[C@@H]1Sc1ccc(Cl)c(Cl)c1` (stereo partly drawn) [Example 42, 3,4-Dichlorophenyl 3-deoxy-3-[4-(2-hydroxythiazol-4-yl)-1H-1,2-pyrazol-1-yl]-2-O-methyl-1-thio-α-D-galactopyranoside], the Kd on Galectin-1 was found to be 180 nM; on Galectin-3, 63000 nM.
Turning to `COC1C(n2cc(-c3csc(N)n3)cn2)[C@@H](O)C(CO)O[C@@H]1Sc1ccc(Cl)c(Cl)c1` (stereo partly drawn) [Example 43, 3,4-Dichlorophenyl 3-[4-(2-aminothiazol-4-yl)-1H-1,2-pyrazol-1-yl]-3-deoxy-2-O-methyl-1-thio-α-D-galactopyranoside], the Kd at Galectin-1 came to 2100 nM; at Galectin-3 it was 11000 nM.
For `COC1C(n2cc(-c3cc(F)c(Cl)c(F)c3)cn2)[C@@H](O)C(CO)O[C@@H]1Sc1cc(Cl)ccc1C#N` (stereo partly drawn) [Example 44, 5-Chloro-2-cyanophenyl 3-[4-(4-chloro-3,5-difluorophenyl)-1H-1,2-pyrazol-1-yl]-3-deoxy-2-O-methyl-1-thio-α-D-galactopyranoside], in that order: 50000 nM and 40 nM.

Usually Kd stands for the equilibrium constant for the complex coming apart.

(Values after patent US12410207B2, “Galactoside inhibitor of galectins” (GALECTO BIOTECH AB, priority 2019, dated 2025).)
